Measured values reported in patent publication US6727066B2, “Genes expressed in treated human C3A liver cell cultures” (Incyte Corporation, priority 2000, dated 2004).

System: human C3A liver cell cultures
Test: Microarray differential expression of cDNAs in treated human C3A liver cell cultures
Format: cell-based
Settings: change vs untreated C3A cells
Excerpt: Incyte clones represent template sequences derived from the LIFESEQ GOLD assembled human sequence database (Incyte Genomics). In cases where more than one clone was available for a particular template, the 5′-most clone in the template was used on the microarray. The GENEALBUM GEM series 1-6 microarrays (Incyte Genomics) contain 52,616 array elements which represent 17,472 annotated clusters and 35,144 unannotated clusters. The HUMAN GENOME GEM series 1-3 microarrays (Incyte Genomics) contain 28,626 array elements which represent 10,068 annotated clusters and 18,558 unannotated clusters. For the UNIGEM series microarrays (Incyte Genomics), Incyte clones were mapped to non-redundant Unigene clusters (Unigene database (build 46), NCBI; Shuler (1997) J Mol Med 75:694-698), and the 5′ clone with the strongest BLAST alignment (at least 90% identity and 100 bp overlap) was chosen, verified, and used in the construction of the microarray. The UNIGEM V microarray (Incyte Genomics) contains 7075 array elements which represent 4610 annotated genes and 2,184 unannotated clusters.
To construct microarrays, cDNAs were amplified from bacterial cells using primers complementary to vector sequences flanking the cDNA insert. […] Amplified cDNAs were then purified using […]-400 columns (APB). Purified cDNAs were immobilized on polymer-coated glass slides. Glass microscope slides (Corning, Corning N.Y.) were cleaned by ultrasound in 0.1% SDS and acetone, with extensive distilled water washes between and after treatments. Glass slides were etched in 4% hydrofluoric acid (VWR Scientific Products, West Chester Pa.), washed thoroughly in distilled water, and coated with 0.05% aminopropyl silane (Sigma Aldrich) in 95% ethanol. Coated slides were cured in a 110° C. oven. cDNAs were applied to the coated glass substrate using a procedure described in U.S. Pat. No. 5,807,522. One microliter of the cDNA at an average concentration of 100 ng/ul was loaded into the open capillary printing element by a high-speed robotic apparatus which then deposited about 5 nl of cDNA per slide.
Microarrays were UV-crosslinked using a […] UV-crosslinker (Stratagene), and then washed at room temperature once in 0.2% SDS and three times in distilled water. Non-specific binding sites were blocked by incubation of microarrays in 0.2% casein in phosphate buffered saline (Tropix, Bedford Mass.) for 30 minutes at 60° C. followed by washes in 0.2% SDS and distilled water as before.
Early confluent C3A cells (ATTC, Manassas Va.) were treated with captopril (0.5, 2, 48, and 60 μg/ml) for 1, 3, and 6 hours. Early confluent C3A cells were treated with enalapril (0.5, 2, 48, and 60 μg/ml) for 1, 3, and 6 hours. Early confluent C3A cells were treated with LY294002 (0.5, 2, 15, and 25 μg/ml) for 1, 3, and 6 hours. Early confluent C3A cells were starved of insulin for 3 days prior to treatment, then treated with LY294002 (10 μM) for 2, 24, 36, and 72 hours in the presence of insulin. Early confluent C3A cells were treated with DES (1, 10, and 100 μM) for 1, 3, and 6 hours. Early confluent C3A cells were treated with dexamethasone (1 and 20 μM) for 0, 2, 6, and 24 hours. Early confluent C3A cells were treated with MCA (0.5 and 10 μM) for 2, 6, and 24 hours. In all cases mRNA from untreated early confluent cells were prepared in parallel as described below.
Cells were harvested and lysed in 1 ml of TRIZOL reagent (5×10^6 cells/ml; Life Technologies). The lysates were vortexed thoroughly and incubated at room temperature for 2-3 minutes and extracted with 0.5 ml chloroform. The extract was mixed, incubated at room temperature for 5 minutes, and centrifuged at 15,000 rpm for 15 minutes at 4° C. The aqueous layer was collected and an equal volume of isopropanol was added.

How did the “expression level of cDNA clone 26474” value turn out when C[C@@H]1C[C@H]2[C@@H]3CCC4=CC(=O)C=C[C@]4(C)[C@@]3(F)[C@@H](O)C[C@]2(C)[C@@]1(O)C(=O)CO [Dexamethasone] was run?
The value was −4.2.

What about the “expression level of cDNA clone 63038” value of the same molecule?
The value was −2.36.

And the “expression level of cDNA clone 118501” value?
The value was 2.79.

And the “expression level of cDNA clone 167081” value?
Its value is 2.14.

And the “expression level of cDNA clone 172023” value?
Its value is −5.8.

What about the “expression level of cDNA clone 237027” value of the same molecule?
The value was −2.85.

What about the “expression level of cDNA clone 630625” value of the same molecule?
The value was 2.52.

And the “expression level of cDNA clone 990375” value?
The value was −2.5.

And the “expression level of cDNA clone 1379063” value?
Its value is −3.42.

And the “expression level of cDNA clone 1381654” value?
The value was 2.57.

What about the “expression level of cDNA clone 1441245” value of the same molecule?
The value was −2.3.

What about the “expression level of cDNA clone 1448718” value of the same molecule?
Its value is −3.1.

What about the “expression level of cDNA clone 1468660” value of the same molecule?
Its value is −3.3.

What about the “expression level of cDNA clone 1559756” value of the same molecule?
The value was 2.47.

And the “expression level of cDNA clone 1616783” value?
The value was 2.55.

And the “expression level of cDNA clone 1619292” value?
The value was −4.4.

What about the “expression level of cDNA clone 1623214” value of the same molecule?
Its value is −2.25.

And the “expression level of cDNA clone 1630990” value?
Its value is 2.86.

What about the “expression level of cDNA clone 1696224” value of the same molecule?
The value was 2.83.

And the “expression level of cDNA clone 1786554” value?
Its value is 2.66.

And the “expression level of cDNA clone 1833362” value?
The value was −3.7.

What about the “expression level of cDNA clone 1834236” value of the same molecule?
The value was −2.3.

What about the “expression level of cDNA clone 1846209” value of the same molecule?
Its value is 2.2.

What about the “expression level of cDNA clone 1890576” value of the same molecule?
The value was −2.5.

What about the “expression level of cDNA clone 1975268” value of the same molecule?
Its value is −3.35.

What about the “expression level of cDNA clone 1998269” value of the same molecule?
The value was 2.44.

What about the “expression level of cDNA clone 2046717” value of the same molecule?
Its value is 2.8.

And the “expression level of cDNA clone 2048551” value?
The value was 2.91.

What about the “expression level of cDNA clone 2120743” value of the same molecule?
Its value is 3.25.

And the “expression level of cDNA clone 2123516” value?
The value was 2.66.

What about the “expression level of cDNA clone 2160794” value of the same molecule?
Its value is −2.51.

What about the “expression level of cDNA clone 2195427” value of the same molecule?
Its value is 2.3.

What about the “expression level of cDNA clone 2343348” value of the same molecule?
The value was 2.18.

And the “expression level of cDNA clone 2470485” value?
Its value is −2.8.

What about the “expression level of cDNA clone 2513883” value of the same molecule?
The value was 3.93.

What about the “expression level of cDNA clone 2660756” value of the same molecule?
The value was 2.21.

What about the “expression level of cDNA clone 2757583” value of the same molecule?
The value was 4.93.

What about the “expression level of cDNA clone 2822027” value of the same molecule?
Its value is 3.

And the “expression level of cDNA clone 2921991” value?
The value was −2.95.

And the “expression level of cDNA clone 2925373” value?
Its value is −2.63.

What about the “expression level of cDNA clone 2933775” value of the same molecule?
Its value is 4.32.

What about the “expression level of cDNA clone 3028719” value of the same molecule?
Its value is −2.6.

What about the “expression level of cDNA clone 3084204” value of the same molecule?
The value was −2.47.

What about the “expression level of cDNA clone 3109384” value of the same molecule?
Its value is 2.6.

And the “expression level of cDNA clone 3170010” value?
The value was −3.67.

What about the “expression level of cDNA clone 3284411” value of the same molecule?
The value was −2.4.

What about the “expression level of cDNA clone 3715059” value of the same molecule?
Its value is −3.17.

What about the “expression level of cDNA clone 4091186” value of the same molecule?
The value was 2.45.

And the “expression level of cDNA clone 4508879” value?
Its value is 2.86.

What about the “expression level of cDNA clone 5399371” value of the same molecule?
Its value is 2.63.

How did the “expression level of cDNA clone 63038” value turn out when CC(C)OC(=O)C(C)(C)Oc1ccc(C(=O)c2ccc(Cl)cc2)cc1 [Fenofibrate, fenofibrate] was run?
Its value is −2.9.

And the “expression level of cDNA clone 280932” value?
Its value is −2.67.

What about the “expression level of cDNA clone 437481” value of the same molecule?
The value was 2.44.

What about the “expression level of cDNA clone 443991” value of the same molecule?
The value was 2.47.

What about the “expression level of cDNA clone 450856” value of the same molecule?
The value was 2.49.

What about the “expression level of cDNA clone 452321” value of the same molecule?
Its value is 3.

What about the “expression level of cDNA clone 480791” value of the same molecule?
Its value is −2.27.

And the “expression level of cDNA clone 630625” value?
The value was 3.95.

What about the “expression level of cDNA clone 970905” value of the same molecule?
The value was −4.06.

What about the “expression level of cDNA clone 1315663” value of the same molecule?
Its value is −4.02.

What about the “expression level of cDNA clone 1619292” value of the same molecule?
Its value is −5.

And the “expression level of cDNA clone 1705208” value?
Its value is 2.83.

And the “expression level of cDNA clone 1846463” value?
Its value is 6.58.

What about the “expression level of cDNA clone 1969563” value of the same molecule?
The value was 6.8.

And the “expression level of cDNA clone 1975268” value?
Its value is −2.42.

What about the “expression level of cDNA clone 2042056” value of the same molecule?
The value was 5.46.

And the “expression level of cDNA clone 2055569” value?
The value was −3.12.

And the “expression level of cDNA clone 2055867” value?
Its value is −3.4.

And the “expression level of cDNA clone 2123516” value?
Its value is 4.6.

What about the “expression level of cDNA clone 2234853” value of the same molecule?
The value was −2.7.

And the “expression level of cDNA clone 2360580” value?
Its value is −4.5.

And the “expression level of cDNA clone 2382195” value?
The value was −2.87.

What about the “expression level of cDNA clone 2399162” value of the same molecule?
Its value is −2.5.

What about the “expression level of cDNA clone 2448149” value of the same molecule?
The value was −2.35.

And the “expression level of cDNA clone 2513883” value?
Its value is 4.47.

And the “expression level of cDNA clone 2607921” value?
Its value is −3.2.

And the “expression level of cDNA clone 2757583” value?
The value was 4.75.

And the “expression level of cDNA clone 2769888” value?
Its value is −3.17.

And the “expression level of cDNA clone 2929484” value?
The value was −2.89.

What about the “expression level of cDNA clone 2957205” value of the same molecule?
Its value is 2.44.

What about the “expression level of cDNA clone 3222802” value of the same molecule?
The value was 2.55.

What about the “expression level of cDNA clone 3272165” value of the same molecule?
The value was −2.57.

What about the “expression level of cDNA clone 4287327” value of the same molecule?
Its value is −3.14.

And the “expression level of cDNA clone 4556538” value?
Its value is 2.53.

O=c1cc(N2CCOCC2)oc2c(-c3ccccc3)cccc12 [LY294002] was tested. Which “expression level of cDNA clone 172023” value did it give?
Its value is −3.38.

And the “expression level of cDNA clone 279898” value?
Its value is 6.7.

And the “expression level of cDNA clone 459372” value?
The value was 4.65.

What about the “expression level of cDNA clone 1315663” value of the same molecule?
The value was −3.27.

What about the “expression level of cDNA clone 1468660” value of the same molecule?
The value was −2.28.

What about the “expression level of cDNA clone 1975268” value of the same molecule?
The value was −3.45.

What about the “expression level of cDNA clone 1998269” value of the same molecule?
The value was −2.46.

And the “expression level of cDNA clone 2769888” value?
The value was −3.37.

What about the “expression level of cDNA clone 3427373” value of the same molecule?
The value was 4.2.

What about the “expression level of cDNA clone 3715059” value of the same molecule?
Its value is −4.3.

And the “expression level of cDNA clone 4556538” value?
Its value is 2.45.
